Measured values from ChEMBL document CHEMBL5214899, “Tailor-made amino acids in the design of small-molecule blockbuster drugs” (Eur J Med Chem, 2021).

Columns and labels:
SARS-CoV = assay: Antiviral activity against SARS 2019-nCoV infected in African green monkey Vero E6 cells assessed as inhibition of viral infection preincubated and measured after 48 hrs by qRT-PCR analysis; format: functional; conditions: Severe acute respiratory syndrome-related coronavirus, Vero C1008
[1] = Inhibition of TNF-alpha release in LPS stimulated human PBMC; format: functional, cell-based
[2] = test system: Human immunodeficiency virus 1; assay: Antiviral activity against HIV-1 IIIb infected in human MT2 cells assessed as reduction in virus induced cytopathic effect and measured after 5 days by XTT assay; format: functional, organism-based; conditions: Human immunodeficiency virus 1, IIIb, MT2, 120 h

CCC(CC)COC(=O)[C@H](C)N[P@](=O)(OC[C@H]1O[C@@](C#N)(c2ccc3c(N)ncnn23)[C@H](O)[C@@H]1O)Oc1ccccc1 [REMDESIVIR]
EC90 (SARS-CoV): 1.76 µM

Nc1cccc2c1CN(C1CCC(=O)NC1=O)C2=O (centres undefined) [LENALIDOMIDE]
IC50 [1]: 0.1 µM

C[C@H](Cn1cnc2c(N)ncnc21)OCP(=O)(O)N[C@H](C)C(=O)O
EC50 [2]: 10 µM

C[C@H](Cn1cnc2c(N)ncnc21)OCP(=O)(O)O [TENOFOVIR ANHYDROUS]
EC50 [2]: 5 µM
